In US10259817B2, “Crystal (6S,9aS)-N-benzyl-8-({6-[3-(4-ethylpiperazin-1-yl)azetidin-1-yl]pyridin-2-yl}methyl)-6-(2-fluoro-4-hydroxybenzyl)-4,7-dioxo-2-(prop-2-en-1-yl)hexahydro-2H-pyrazino[2,1-c][1,2,4]triazine-1(6H)-carboxamide” (Eisai R&D Management Co., Ltd., priority 2015, dated 2019):

What was measured:
[1] = system: human chronic myologenous leukemia cell strain K562; conditions: day 28; Dasatinib 5 mg/kg alone, oral qd 5 days + 2-day holiday, two cycles
From the text: A preparation of a human chronic myologenous leukemia cell strain K562 (which had been cultured in a RPMI-1640 liquid culture medium supplemented with 10% FBS and penicillin/streptomycin) which was so prepared with PBS (Wako Pure Chemical Industries, Ltd.; Cat#045-29795) that the density became 2×10^8 cells/mL was mixed with [sequence] (BD Biosicence, Cat#: 354234) at a mixing ratio of 1:1, thereby preparing a cell suspension having a density of 1×10^8 cells/mL. The resulting cell suspension was transplanted subcutaneously into the right flank of each of six-week-old nude mice (CAnN.Cg-Foxn1nu/CrlCrlj, female, Charles River Laboratories Japan) at a dose of 100 μL. Seven days after the transplantation, the shorter diameter and the longer diameter of a tumor were measured using an electronic digital caliper (Digimatic™ Caliper, Mitutoyo Corporation) to calculate the tumor volume in accordance with the following equation. Tumor volume (mm^3)=(longer diameter (mm))×(shorter diameter (mm))×(shorter diameter (mm))/2
The mice were grouped in such a manner that the average value of the tumor volumes in mice in a group, which were determined on the basis of the tumor volume on the first day of the administration. […]

Wnt signal = experiment: Detection of Wnt signal (TOPglow luciferase reporter, LiCl-stimulated HEK293 clone); format: cell-based; conditions: Homo sapiens; HEK293 pNeo-TOP clone, LiCl added, luciferase emission; read-out: IC50, concentration required for inhibiting the Wnt signal activity by 50%
From the text: The plasmid pNeo-TOP was introduced into human fetus-derived renal cell strain HEK293, then a compound was selected using G418, and then a cell clone strain was established by a limiting dilution method. The cell clone strain was subjected to a Wnt signal detection test.
The cell clone strain was subcultured in a D-MEM glucose-rich culture medium (Wako Pure Chemical Industries, Ltd.) containing 10% FBS, and cells in a growth phase were used in the test. Cells were collected using trypsin-EDTA, the number of the cells was counted, and then the cells were suspended in a D-MEM glucose-rich culture medium containing 10% FBS so that the number of cells became 2×10^5 cells/mL. The cell suspension was added to a 96-well cell culture plate (Greiner Bio-One Co., Ltd., product number: 655083) in an amount of 0.1 mL/well and then cultured overnight in a 5% CO2 incubator (37° C.). After the culturing, a substance to be tested, which was dissolved in DMSO, was diluted with a D-MEM glucose-rich culture medium containing 10% of FBS and 80 mM of LiCl to produce a sample solution. The sample solution (0.1 mL) was added to each well and then cultured in a 5% CO2 incubator (37° C.) overnight. […] The plate was put on a plate mixer for several seconds, and then the emission of light from each well was measured using a EnVision™ Multilabel plate reader (PerkinElmer Co., Ltd.). […]

| Compound | the number of individuals in which a tumor was not observed by visual judgment/total number of administered individuals [1] | IC50 (Wnt signal) [nM] |
| --- | --- | --- |
| Cc1nc(Nc2ncc(C(=O)Nc3c(C)cccc3Cl)s2)cc(N2CCN(CCO)CC2)n1 [Dasatinib] | 0/9 |  |
| C=CCN1CC(=O)N2[C@@H](Cc3ccc(O)cc3F)C(=O)N(Cc3cccc(N4CC(N5CCN(CC)CC5)C4)n3)C[C@@H]2N1C(=O)NCc1ccccc1 [Example 1, (6S,9aS)-N-benzyl-8-({6-[3-(4-ethylpiperazin-1-yl)azetidin-1-yl]pyridin-2-yl}methyl)-6-(2-fluoro-4-hydroxybenzyl)-4,7-dioxo-2-(prop-2-en-1-yl)hexahydro-2H-pyrazino[2,1-c][1,2,4]triazine-1(6H)-carboxamide] |  | 60 |
